Experimental data as given in ChEMBL document CHEMBL3785084, “Rational modification of the lead molecule: Enhancement in the anticancer and dihydrofolate reductase inhibitory activity” (Bioorg Med Chem Lett, 2016).

Tests used:
[1] = biological target: T1, Dihydrofolate reductase (Homo sapiens, UniProt P00374); experiment: Inhibition of human DHFR assessed as conversion of dihydrofolic acid to tetrahydrfolic acid by enzyme immunoassay in presence of NADPH
T1 sequence (P00374 whole entry): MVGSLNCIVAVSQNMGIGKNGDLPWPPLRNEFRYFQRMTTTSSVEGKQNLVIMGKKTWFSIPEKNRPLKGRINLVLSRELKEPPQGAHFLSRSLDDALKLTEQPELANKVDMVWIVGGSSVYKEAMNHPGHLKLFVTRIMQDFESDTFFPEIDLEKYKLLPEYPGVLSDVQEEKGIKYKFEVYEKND

[2] = Cytotoxicity against human HL-60(TB) cells assessed as cell growth at 10^-5 M after 48 hrs by sulforhodamine B assay; format: functional; details: HL-60, 48 h, read-out: Activity
[3] = tested on: A549; experiment: Cytotoxicity against human A549 cells assessed as cell growth at 10^-5 M after 48 hrs by sulforhodamine B assay; format: functional; details: A549, 48 h, read-out: Activity
[4] = tested on: NCI-H460; experiment: Cytotoxicity against human NCI-H460 cells assessed as cell growth at 10^-5 M after 48 hrs by sulforhodamine B assay; format: functional; details: NCI-H460, 48 h, read-out: Activity
[5] = Cytotoxicity against human HCC2998 cells assessed as cell growth at 10^-5 M after 48 hrs by sulforhodamine B assay; format: functional; details: HCC 2998, 48 h, read-out: Activity
[6] = Cytotoxicity against human HCT15 cells assessed as cell growth at 10^-5 M after 48 hrs by sulforhodamine B assay; format: functional; details: HCT-15, 48 h, read-out: Activity
[7] = tested on: KM12; experiment: Cytotoxicity against human KM12 cells assessed as cell growth at 10^-5 M after 48 hrs by sulforhodamine B assay; format: functional; details: KM12, 48 h, read-out: Activity
[8] = Cytotoxicity against human SNB19 cells assessed as cell growth at 10^-5 M after 48 hrs by sulforhodamine B assay; format: functional; details: SNB-19, 48 h, read-out: Activity
[9] = Cytotoxicity against human LOXIMVI cells assessed as cell growth at 10^-5 M after 48 hrs by sulforhodamine B assay; format: functional; details: LOX IMVI, read-out: Activity
[10] = tested on: SK-MEL-2; experiment: Cytotoxicity against human SK-MEL-2 cells assessed as cell growth at 10^-5 M after 48 hrs by sulforhodamine B assay; format: functional; details: SK-MEL-2, 48 h, read-out: Activity
[11] = Cytotoxicity against human UACC257 cells assessed as cell growth at 10^-5 M after 48 hrs by sulforhodamine B assay; format: functional; details: UACC-257, 48 h, read-out: Activity
[12] = Cytotoxicity against human OVCAR3 cells assessed as cell growth at 10^-5 M after 48 hrs by sulforhodamine B assay; format: functional; details: OVCAR-3, 48 h, read-out: Activity
[13] = Cytotoxicity against human OVCAR5 cells assessed as cell growth at 10^-5 M after 48 hrs by sulforhodamine B assay; format: functional; details: OVCAR-5, 48 h, read-out: Activity
[14] = Cytotoxicity against human NCI-ADR-RES cells assessed as cell growth at 10^-5 M after 48 hrs by sulforhodamine B assay; format: functional; details: read-out: Activity
[15] = tested on: 786-0; experiment: Cytotoxicity against human 786-0 cells assessed as cell growth at 10^-5 M after 48 hrs by sulforhodamine B assay; format: functional; details: 786-0, 48 h, read-out: Activity
[16] = Cytotoxicity against human RXF393 cells assessed as cell growth at 10^-5 M after 48 hrs by sulforhodamine B assay; format: functional; details: RXF 393, 48 h, read-out: Activity
[17] = tested on: SN12C; experiment: Cytotoxicity against human SN12C cells assessed as cell growth at 10^-5 M after 48 hrs by sulforhodamine B assay; format: functional; details: read-out: Activity
[18] = Cytotoxicity against human PC3 cells assessed as cell growth at 10^-5 M after 48 hrs by sulforhodamine B assay; format: functional; details: PC-3, 48 h, read-out: Activity
[19] = cells; details: Homo sapiens, UACC-257, 48 h; for CC50: read-out: LC50
Description: Cytotoxicity against human UACC257 cells after 48 hrs by sulforhodamine B assay

[20] = cells; details: Homo sapiens, UACC-62, 48 h; for CC50: read-out: LC50
Description: Cytotoxicity against human UACC62 cells after 48 hrs by sulforhodamine B assay

[21] = cells; details: Homo sapiens, OVCAR-4, 48 h
Description: Cytotoxicity against human OVCAR4 cells after 48 hrs by sulforhodamine B assay

[22] = tested on: 786-0; experiment: cells; details: Homo sapiens, 786-0, 48 h; for CC50: read-out: LC50
Description: Cytotoxicity against human 786-0 cells after 48 hrs by sulforhodamine B assay

[23] = tested on: A498; experiment: cells; details: Homo sapiens, A498, 48 h; for CC50: read-out: LC50
Description: Cytotoxicity against human A498 cells after 48 hrs by sulforhodamine B assay

[24] = tested on: A549; experiment: cells; details: Homo sapiens, A549, 48 h; for CC50: read-out: LC50
Description: Cytotoxicity against human A549 cells after 48 hrs by sulforhodamine B assay

[25] = cells; details: Homo sapiens, HOP-62, 48 h; for CC50: read-out: LC50
Description: Cytotoxicity against human HOP62 cells after 48 hrs by sulforhodamine B assay

[26] = tested on: NCI-H226; experiment: cells; details: Homo sapiens, NCI-H226, 48 h; for CC50: read-out: LC50
Description: Cytotoxicity against human NCI-H226 cells after 48 hrs by sulforhodamine B assay

[27] = tested on: NCI-H460; experiment: cells; details: Homo sapiens, NCI-H460, 48 h; for CC50: read-out: LC50
Description: Cytotoxicity against human NCI-H460 cells after 48 hrs by sulforhodamine B assay

[28] = tested on: NCI-H522; experiment: cells; details: Homo sapiens, NCI-H522, 48 h
Description: Cytotoxicity against human NCI-H522 cells after 48 hrs by sulforhodamine B assay

[29] = cells; details: Homo sapiens, HCC 2998, 48 h; for CC50: read-out: LC50
Description: Cytotoxicity against human HCC2998 cells after 48 hrs by sulforhodamine B assay

[30] = cells; details: Homo sapiens, SF-539, 48 h; for CC50: read-out: LC50
Description: Cytotoxicity against human SF539 cells after 48 hrs by sulforhodamine B assay

[31] = cells; details: Homo sapiens, SNB-19, 48 h; for CC50: read-out: LC50
Description: Cytotoxicity against human SNB19 cells after 48 hrs by sulforhodamine B assay

[32] = tested on: M14; experiment: cells; details: Homo sapiens, M14, 48 h; for CC50: read-out: LC50
Description: Cytotoxicity against human M14 cells after 48 hrs by sulforhodamine B assay

[33] = tested on: MDA-MB-435; experiment: cells; details: Homo sapiens, MDA-MB-435, 48 h; for CC50: read-out: LC50
Description: Cytotoxicity against human MDA-MB-435 cells after 48 hrs by sulforhodamine B assay

[34] = tested on: NCI-H226; experiment: Cytotoxicity against human NCI-H226 cells assessed as cell growth at 10^-5 M after 48 hrs by sulforhodamine B assay; format: functional; details: NCI-H226, 48 h, read-out: Activity

## COc1cc(/C=C2\C(=O)Nc3ccccc32)cc(OC)c1O
[1]
  IC50: 0.5 µM
[2]
  growth at 10 µM: 1.88%
[3]
  growth at 10 µM: 67.9%
[4]
  growth at 10 µM: 40.1%
[5]
  growth at 10 µM: 78.8%
[6]
  growth at 10 µM: 61.6%
[7]
  growth at 10 µM: 32.2%
[8]
  growth at 10 µM: 83.7%
[9]
  growth at 10 µM: 36.5%
[10]
  growth at 10 µM: 50.4%
[11]
  growth at 10 µM: 62.6%
[12]
  growth at 10 µM: 46.9%
[13]
  growth at 10 µM: 112%
[14]
  growth at 10 µM: 19.1%
[15]
  growth at 10 µM: 83.2%
[16]
  growth at 10 µM: 71.3%
[17]
  growth at 10 µM: 77%
[18]
  growth at 10 µM: 51.2%
[19]
  GI50: 1.8 µM
  TGI: 18.6 µM
  CC50: 67.6 µM
[20]
  GI50: 2.6 µM
  TGI: 11.2 µM
  CC50: 35.4 µM
[21]
  GI50: 4.9 µM
  TGI: 31.6 µM
[21]; read-out: LC50
  CC50: > 100 µM
[22]
  GI50: 7.1 µM
  TGI: 27.5 µM
  CC50: 91.2 µM
[23]
  GI50: 2.1 µM
  TGI: 15.8 µM
  CC50: > 100 µM
[24]
  GI50: 4.9 µM
  TGI: 47.8 µM
  CC50: > 100 µM
[25]
  GI50: 4.3 µM
  TGI: 23.4 µM
  CC50: > 100 µM
[26]
  GI50: 17.7 µM
  TGI: > 100 µM
  CC50: > 100 µM
[27]
  GI50: 3 µM
  TGI: 11.7 µM
  CC50: 53.7 µM
[28]
  GI50: 1.7 µM
  TGI: 5.1 µM
[28]; read-out: LC50
  CC50: 22.9 µM
[29]
  GI50: 11.7 µM
  TGI: 24.5 µM
  CC50: 51.3 µM
[30]
  GI50: 2.5 µM
  TGI: 13.2 µM
  CC50: 53.7 µM
[31]
  GI50: 4.5 µM
  TGI: 54.9 µM
  CC50: > 100 µM
[32]
  GI50: 2.7 µM
  TGI: 10.9 µM
  CC50: 67.6 µM
[33]
  GI50: 0.6 µM
  TGI: 2.2 µM
  CC50: 6 µM

## O=C1Nc2ccccc2/C1=C/c1cn(CC(O)Cn2cc(/C=C3\C(=O)Nc4ccccc43)c3ccccc32)c2ccccc12 (stereo unspecified)
[1]
  IC50: 0.03 µM
  Ki: 0.00583 µM
[2]
  growth at 10 µM: -10.2%
[3]
  growth at 10 µM: -11.6%
[34]
  growth at 10 µM: -74.8%
[4]
  growth at 10 µM: -65.1%
[5]
  growth at 10 µM: -16.9%
[6]
  growth at 10 µM: -69.8%
[7]
  growth at 10 µM: -80.9%
[8]
  growth at 10 µM: -43%
[9]
  growth at 10 µM: -84.5%
[10]
  growth at 10 µM: -57.6%
[11]
  growth at 10 µM: -51%
[12]
  growth at 10 µM: -85.1%
[13]
  growth at 10 µM: -34.1%
[14]
  growth at 10 µM: 31.8%
[15]
  growth at 10 µM: -70.8%
[16]
  growth at 10 µM: -90.8%
[17]
  growth at 10 µM: -53.6%
[18]
  growth at 10 µM: -86.3%
[19]
  GI50: 2.3 µM
  TGI: 4.4 µM
  CC50: 8.3 µM
[20]
  GI50: 1.6 µM
  TGI: 3.1 µM
  CC50: 6.1 µM
[21]
  GI50: 1.8 µM
  TGI: 3.9 µM
[22]
  GI50: 1.6 µM
  TGI: 3.2 µM
  CC50: 6.1 µM
[23]
  GI50: 2.2 µM
  TGI: 4.1 µM
  CC50: 7.6 µM
[24]
  GI50: 1.5 µM
  TGI: 3.2 µM
  CC50: 6.8 µM
[25]
  GI50: 1.4 µM
  TGI: 3.06 µM
  CC50: 6.6 µM
[26]
  GI50: 1.6 µM
  TGI: 3.5 µM
  CC50: 7.5 µM
[27]
  GI50: 0.48 µM
  TGI: 1.8 µM
  CC50: 6.6 µM
[28]
  GI50: 1.6 µM
  TGI: 3.5 µM
[29]
  GI50: 2.2 µM
  TGI: 5.2 µM
  CC50: 17.3 µM
[30]
  GI50: 1.5 µM
  TGI: 3.1 µM
  CC50: 6.1 µM
[31]
  GI50: 1.2 µM
  TGI: 3.8 µM
  CC50: > 100 µM
[32]
  GI50: 1.3 µM
  TGI: 2.8 µM
  CC50: 6.02 µM
[33]
  GI50: 1.8 µM
  TGI: 3.4 µM
  CC50: 6.6 µM
